Results as given in ChEMBL document CHEMBL3611975, “New carbocyclic N(6)-substituted adenine and pyrimidine nucleoside analogues with a bicyclo[2.2.1]heptane fragment as sugar moiety; synthesis, antiviral, anticancer activity and X-ray crystallography” (Bioorg Med Chem, 2015).

How the values were obtained:
Coxsackievirus B4 = assay: Antiviral activity against Human coxsackievirus B4 Powers infected in African green monkey Vero cells assessed as decrease in virus titer after 72 hrs by MTT assay; assay type: functional, organism-based; conditions: Enterovirus B
OVCAR-5 = assay: Cytotoxicity against human OVCAR5 cells assessed as growth at 10^-5 M relative to control
SK-MEL-5 = assay: Cytotoxicity against human SK-MEL-5 cells assessed as growth at 10^-5 M relative to control
SK-OV-3 = assay: Cytotoxicity against human SKOV3 cells assessed as growth at 10^-5 M relative to control
SNB-19 = assay: Cytotoxicity against human SNB19 cells assessed as growth at 10^-5 M relative to control
SF-268 = assay: Cytotoxicity against human SF268 cells assessed as growth at 10^-5 M relative to control
BT-549 = assay: Cytotoxicity against human BT549 cells assessed as growth at 10^-5 M relative to control
UACC-257 = assay: Cytotoxicity against human UACC257 cells assessed as growth at 10^-5 M relative to control
COLO 205 = assay: Cytotoxicity against human COLO205 cells assessed as growth at 10^-5 M relative to control
U-251 = assay: Cytotoxicity against human U251 cells assessed as growth at 10^-5 M relative to control
[1] = Selectivity index, ratio of CTD50 for MDCK cells to EC50 for Influenza A virus (A/Puerto Rico/8/1934(H1N1)); assay type: toxicity, cell-based; conditions: dog
MDA-MB-231 = assay: Cytotoxicity against human MDA-MB-231 cells assessed as growth at 10^-5 M relative to control
PC-3 = assay: Cytotoxicity against human PC3 cells assessed as growth at 10^-5 M relative to control
NCI-H460 = assay: Cytotoxicity against human NCI-H460 cells assessed as growth at 10^-5 M relative to control
[2] = Cytotoxicity against MDCK cells assessed as cell viability after 48 hrs by MTT assay; assay type: cell-based, Canis lupus familiaris; conditions: dog, read-out: CTD50
K562 = assay: Cytotoxicity against human K562 cells assessed as growth at 10^-5 M relative to control
Malme-3M = assay: Cytotoxicity against human MALME-3M cells assessed as growth at 10^-5 M relative to control
ACHN = assay: Cytotoxicity against human ACHN cells assessed as growth at 10^-5 M relative to control
UO-31 = assay: Cytotoxicity against human UO31 cells assessed as growth at 10^-5 M relative to control
NCI-H226 = assay: Cytotoxicity against human NCI-H226 cells assessed as growth at 10^-5 M relative to control
SF-295 = assay: Cytotoxicity against human SF295 cells assessed as growth at 10^-5 M relative to control
NCI-H522 = assay: Cytotoxicity against human NCI-H522 cells assessed as growth at 10^-5 M relative to control
[3] = Cytotoxicity against human EKVX cells assessed as growth at 10^-5 M relative to control
[4] = Cytotoxicity against human Hs578T cells assessed as growth at 10^-5 M relative to control; conditions: Hs-578T

SMILES	EC50 (Coxsackievirus B4) [µM]	growth, % of control at 10 µM (OVCAR-5) [%]	growth, % of control at 10 µM (SK-MEL-5) [%]	growth, % of control at 10 µM (SK-OV-3) [%]	growth, % of control at 10 µM (SNB-19) [%]	growth, % of control at 10 µM (SF-268) [%]	growth, % of control at 10 µM (BT-549) [%]	growth, % of control at 10 µM (UACC-257) [%]	growth, % of control at 10 µM (COLO 205) [%]	growth, % of control at 10 µM (U-251) [%]	selectivity ratio [1]	growth, % of control at 10 µM (MDA-MB-231) [%]	growth, % of control at 10 µM (PC-3) [%]	growth, % of control at 10 µM (NCI-H460) [%]	CC50 at 48 h [2] [µM]	growth, % of control at 10 µM (K562) [%]	growth, % of control at 10 µM (Malme-3M) [%]	growth, % of control at 10 µM (ACHN) [%]	growth, % of control at 10 µM (UO-31) [%]	growth, % of control at 10 µM (NCI-H226) [%]	also measured
OC[C@H]1[C@@H]2C[C@H](n3cnc4c(NCCc5ccccc5)ncnc43)[C@H]1C[C@@H]2Cl	4	104	73.9	103	107	101	96.1	103	99.3	103	10	104	89.1	108	143	91.1	102	97.8	73.8		
COc1ccc(CCNc2ncnc3c2ncn3[C@H]2C[C@H]3[C@H](CO)[C@@H]2C[C@@H]3Cl)cc1	> 9	97.7	87	106	107	97.7	86.8	99.4	113	105	22	100	102	106	350	82.8	98.2	97.7	81	102	growth, % of control at 10 µM (SF-295): 104%; growth, % of control at 10 µM (NCI-H522): 56.7%; growth, % of control at 10 µM [3]: 100%; growth, % of control at 10 µM [4]: 93.6%
CCOc1ncnc2c1ncn2[C@H]1C[C@H]2[C@H](CO)[C@@H]1C[C@@H]2Cl	> 102	92.5	100	128	115	98	106	106	119	102	> 5	97.9	104	108	> 1020	101	96	99	88.1	94.5	growth, % of control at 10 µM (SF-295): 108%; growth, % of control at 10 µM (NCI-H522): 92.4%; growth, % of control at 10 µM [3]: 95.8%; growth, % of control at 10 µM [4]: 108%
